From the METLIN SMRT retention time set (Domingo-Almenara et al. 2019)

Assay: gradient 5% acetonitrile 3 min, to 50% in 2 min, to 85% in 15 min, held 3 min, 100 µL/min
Settings: column: Zorbax Extend-C18 2.1 x 50 mm; eluents: water / acetonitrile, 0.1% formic acid
Procedure, shortened: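 Standards, all pure, were combined into mixtures of ~100 molecules and run at 100 μL/min on a Zorbax Extend-C18 column (2.1 × 50 mm, 1.8 μm) with water and acetonitrile, each containing 0.1% formic acid. A coupled quadrupole time-of-flight mass spectrometer operated in positive and negative ionization mode. Retention time values come from computationally picked adduct peaks, each inspected manually.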

| RP-LC retention time | SMILES |
| --- | --- |
| 827 s | CCOC(=O)c1ccc(Nc2c(-c3ccc(N(C)C)cc3)nc3cnccn23)cc1 |
| 660 s | O=C(NC1CCCCC1)c1nc(-c2ccncc2)cs1 |
| 946 s | Cc1cc(C)n(-c2ccnc(NCc3ccc(Br)cc3)n2)n1 |
| 727 s | CCN1CCn2cc(S(=O)(=O)Nc3ccc(F)cc3F)cc2C1=O |
| 716 s | CCCn1c(C2CCN(C(=O)c3sccc3C)C2)nc2cccnc21 (stereo not given) |
| 897 s | Cc1cc(NC(=O)C2CCc3nc(N4CCOCC4)ncc3C2)ccc1Cl (stereo not given) |
| 695 s | Cc1nnc2cc(N3CCN(S(=O)(=O)c4ccc(CC(C)C)cc4)CC3)cnn12 |
| 858 s | COc1ccc(-c2nnc(Cc3nc(C(C)C)no3)o2)cc1 |
| 960 s | Cc1cc(-c2nnc(C3CCC3)o2)c(C)n1CC(=O)NCc1ccccc1C(F)(F)F |
| 587 s | CCN1CCN(C(=O)c2ccc(-c3nnc4ccc(NC(=O)C5CC5)cn34)cc2)CC1 |
| 807 s | O=C1CCc2cc(NC(=O)c3ccc([N+](=O)[O-])cc3Cl)ccc2N1 |
| 668 s | CCOc1cccc(-c2noc(Cn3ccnc3CC)n2)c1 |
| 796 s | Nc1sc(SCC(=O)NCc2ccc(F)cc2)nc1-c1ccccc1 |
| 586 s | O=C(NCc1ccccn1)c1c(OCC2CC2)cc(=O)n2c1CCCCC2 |
| 703 s | Cc1ccccc1C(=O)N1CCC2(C1)C(=O)Nc1ccccc12 (stereo not given) |
| 913 s | CC(=O)c1cccc(N2C(=O)COc3ccc(Br)cc3C2C(=O)NC2CCCC2)c1 (stereo not given) |
| 582 s | Cn1nc(C(=O)Nc2ccc(S(N)(=O)=O)cc2)ccc1=O |
| 981 s | CCCCS(=O)(=O)c1cc2c(cc1NC(=O)c1cccc(C)c1)n(C)c(=O)n2C |
| 1330 s | CC1(C)CC(=O)c2c(nc(N3CCN(c4ncccn4)CC3)nc2Nc2ccccc2)C1 |
| 1120 s | CCCN1CCN(c2ncc3c(n2)CCN(Cc2cccc(OC)c2)C3)CC1 |
| 640 s | CCOc1ccc(C(C)NC(=O)c2cn3c(n2)CN(CC(C)C)CC3)cc1 (stereo not given) |
| 848 s | Cc1nc2cc(N3CC(C(=O)N4CCN(c5ccccc5C)CC4)CC3=O)ccc2o1 (stereo not given) |

| RP-LC retention time | SMILES |
| --- | --- |
| 657 s | CCNC(=O)c1[nH]c2ccccc2c1N1CCCC1=O |
| 790 s | O=C(Cc1ccccc1)NCCSc1c[nH]c2ccccc12 |
| 752 s | O=S(=O)(CCc1ccccc1)N1CCN(c2ccc3nnc(-c4ccco4)n3n2)CC1 |
| 632 s | Cc1cc(C(=O)Nc2ccc(S(C)(=O)=O)cc2)no1 |
| 681 s | O=c1c2cc(-c3ccccc3)nn2ccn1Cc1noc(CN2CCOCC2)n1 |
| 732 s | C=CCNC(=O)N1CCCN(C2=NS(=O)(=O)C(c3ccc(C)cc3)=C2C)CC1 |
| 1040 s | CCOc1ccccc1NC(=O)N1CCC(c2cnn(-c3ccccc3)c2)CC1 |
| 832 s | CCc1ccc(Nc2cc(C(=O)N3CCC(C)CC3)nc3cc(OC)c(OC)cc23)cc1 |
| 974 s | CC(=O)N1CCc2c([nH]c3ccccc23)C12C(=O)N(CC(C)C)c1ccc(Br)cc12 (stereo not given) |
| 605 s | CCCCn1c(CN2CCCC2)nc2cc(NC(=O)CC)ccc21 |
| 740 s | COc1ccc(C(=O)NC2CCN(c3cc(-c4ccc(F)cc4)[nH]n3)C2)c(OC)c1 (stereo not given) |
| 1020 s | Fc1cccc(CSc2ccc(-c3ccc4c(c3)OCO4)nn2)c1 |
| 929 s | COCC(=O)N(CC(=O)N1CCc2sccc2C1COc1ccc(C)cc1C)CC1CCCO1 (stereo not given) |
| 966 s | CCOC(=O)c1ccccc1NC(=O)Cn1c(=O)n(-c2cccc(C)c2)c(=O)c2c1cc(C)n2C |
| 914 s | CC1=C2C3OC(=O)C(C)C3CCC2(C)C=C(Cl)C1=O (stereo not given) |
| 783 s | O=C(Nc1nnc(C2CC(=O)N(c3ccc(F)cc3)C2)o1)c1ccc(Br)cc1 (stereo not given) |
| 597 s | CCOCCCNC(=O)C1Cn2cccc2C(=O)N1C (stereo not given) |
| 737 s | O=C(O)c1ccc(Nc2c(-c3ccc(Cl)cc3)nc3cnccn23)cc1 |
| 688 s | Cc1ccc(C(=O)OCC(=O)c2ccc([N+](=O)[O-])cc2)o1 |
| 838 s | Cc1ccc(Cl)cc1N1C(=O)CN(S(C)(=O)=O)CC1(C)C(=O)NC1CCCC1 (stereo not given) |
| 867 s | Cc1cc(C)c(NC(=O)Cn2nc3cc(C)nc(-c4ccccc4)n3c2=O)c(C)c1 |
| 854 s | Cc1ccc(-c2ccc3nnc(CCC(=O)NC4CCC(C)CC4)n3n2)cc1C (stereo not given) |

| RP-LC retention time | SMILES |
| --- | --- |
| 622 s | CCCN1CCN(S(=O)(=O)c2cc(-c3nnc(C4CCC4)o3)co2)CC1 |
| 1130 s | CCCn1ccc2oc(C)c(C(=O)NCc3cccc(Br)c3)c2c1=O |
| 1030 s | Cn1c(C(=O)N2CCN(c3ncccn3)CC2)cc2c(-c3cccs3)nn(-c3ccccc3)c21 |
| 698 s | CCOc1ccc(NC(=O)c2oc3ccccc3c2C)c2cccnc12 |
| 1220 s | Cc1ccc(-n2ncc3c(=O)n(Cc4nc(-c5ccc(F)c(Br)c5)no4)cnc32)cc1 |
| 891 s | CCc1ccc(Nc2ncccc2S(N)(=O)=O)cc1 |
| 1220 s | COc1ccc(OC)c(CNS(=O)(=O)c2cccc(-c3nc(-c4ccc(C)cc4)no3)c2)c1 |
| 622 s | CCn1cc(S(=O)(=O)N2CCC(C3CCN(C(=O)NC)CC3)C2)cn1 (stereo not given) |
| 870 s | O=C(Nc1ccc(SCc2nnc(-c3ccccc3)o2)cc1)C1CC1 |
| 1240 s | CCn1nccc1-c1cccc(-c2noc(-c3ccc(F)cc3)n2)c1 |
| 679 s | O=C(NCC1CCCO1)c1cccc(Nc2c(-c3ccccc3)nc3cnccn23)c1 (stereo not given) |
| 726 s | Cc1noc(C2CN(C(=O)Nc3cc(F)cc(F)c3)CC23CCOCC3)n1 (stereo not given) |
| 582 s | Cc1ccc(CNC(=O)N2CC(N(CC3CC3)C3CCOCC3)C2)cc1 |
| 643 s | CC1CC(=O)c2cnc(N3CCN(Cc4ccccc4)CC3)nc2C1 (stereo not given) |
| 994 s | CN(C)c1ccc(-c2noc(C3CC(=O)N(c4ccc(F)cc4)C3)n2)cc1 (stereo not given) |
| 879 s | COCCN1C(=O)c2ccccc2C(C(=O)NCc2ccc(F)cc2)C12CCCC2 (stereo not given) |
| 593 s | Cc1ccsc1C(=O)N1C[C@@H]2CCCN3CCC[C@@H]([C@H]23)[C@H]1CCCC(=O)N1CCOCC1 |
| 778 s | CCc1ccccc1NC(=O)c1sc(C)nc1C |
| 596 s | COC(=O)CNC(=O)Nc1ncc(-c2ccccc2)n1C |
| 682 s | CN(C)CC[C@@H](c1ccc(Br)cc1)c1ccccn1 |
| 819 s | CC1CS(=O)(=O)N(c2ccc(S(=O)(=O)Nc3ccccc3C(F)(F)F)cc2)C1=O (stereo not given) |
| 1120 s | CCN1C(=O)COc2cc(-c3noc(C(=O)NCCC4=CCCCC4)n3)ccc21 |

| RP-LC retention time | SMILES |
| --- | --- |
| 819 s | Cc1ccccc1Cn1nnc2cc(C(=O)N3CCN(c4ncccn4)CC3)ccc21 |
| 575 s | O=C(CCCc1ccccc1)N1CCN(c2ccc(Nc3cccnc3)nn2)CC1 |
| 641 s | COCCOC1CN(C2CCN(C(=O)Nc3ccccc3)CC2)C12CCCCC2 (stereo not given) |
| 654 s | Nc1nnc(SCc2nnc(-c3ccccc3)o2)s1 |
| 828 s | O=C(O)c1ccc(N2CCCCC2)cc1O |
| 635 s | Cn1c(C(=O)N2CCN(c3ccccn3)CC2)c(N2CCCC2=O)c2cc(F)ccc21 |
| 545 s | CN(C)c1ccc(CNC(=O)C2CCN(c3cncnc3N3CCOCC3)CC2)cc1 |
| 573 s | CN(C)c1ccc(C(CNS(C)(=O)=O)N2CCc3ccccc3C2)cc1 (stereo not given) |
| 966 s | CCn1ccc(C(=O)N2CCc3c(-c4ccc(OC)cc4)cccc3[C@H]2C)n1 |
| 944 s | O=C(CSc1ccc(-c2cccc([N+](=O)[O-])c2)nn1)c1ccc(F)cc1 |
| 816 s | COc1ccc(-c2nnc(-c3cccc(S(=O)(=O)N(C)C)c3)o2)cc1OC |
| 638 s | COc1ccc(-n2cc(C(=O)O)nn2)cc1OC |
| 981 s | COc1ccc(CNC(=O)C2(C)CCCN(S(=O)(=O)c3ccc(Cl)cc3)C2)cc1 (stereo not given) |
| 782 s | O=C(NCc1nnnn1C1CCCCC1)c1ccccc1C(F)(F)F |
| 1100 s | Cc1cccc(CNC(=O)c2nnc(-c3ccc(S(=O)(=O)N4CCC(C)CC4)cc3)o2)c1 |
| 668 s | CN(C)CCNc1ccc(-c2nc(-c3ccc(F)cc3)no2)cn1 |
| 1170 s | O=C(NCC1CCCCC1)C1CCN(C(=O)c2cc3ccsc3n2Cc2ccc(Cl)cc2)CC1 |
| 582 s | O=C(Nc1c(F)cccc1F)N1CCc2[nH]cnc2C1c1ccccn1 (stereo not given) |
| 954 s | COc1ccc(-c2noc(-c3ncn4c3COC(c3ccc(F)cc3)C4)n2)c(OC)c1 (stereo not given) |
| 694 s | O=C(Cn1cnc2nc(N3CCC(C(=O)NC4CC4)CC3)sc2c1=O)Nc1cc(F)cc(F)c1 |
| 774 s | O=C(NCc1noc(-c2ccc(F)cc2)n1)C1CCC1 |
| 1040 s | O=C(CN1C(=O)C(C(=O)N2CCCC2)Sc2ccccc21)Nc1ccc(F)c(F)c1 (stereo not given) |

| SMILES | RP-LC retention time |
| --- | --- |
| CCCCNC1(c2cc3ccccc3s2)CCCCC1 | 831 s |
| COc1ccc(-c2coc3cc(OC(=O)N(C)C)cc(O)c3c2=O)cc1OC | 858 s |
